5 molecules from PMC2882332, “Species Used for Drug Testing Reveal Different Inhibition Susceptibility for 17beta-Hydroxysteroid Dehydrogenase Type 1” (PLoS ONE, 2010) can be followed below.

Entries after “also recorded” stand apart in the source; their conditions may differ.

One may read the inhibition as the change of the read-out against control, counted positive when it falls. A word on the IC50: it is the concentration that inhibits the measured activity by half.

The target in one assay is T1, rat 17β-HSD 1 (Rattus norvegicus, UniProt P51657).
T1 construct: Full length cDNAs of several 17β-HSDs type 1 originating from different species were cloned; made in house; host or cells: E.coli BL21 DE3 Codon Plus RP
T1 sequence (P51657 1-344): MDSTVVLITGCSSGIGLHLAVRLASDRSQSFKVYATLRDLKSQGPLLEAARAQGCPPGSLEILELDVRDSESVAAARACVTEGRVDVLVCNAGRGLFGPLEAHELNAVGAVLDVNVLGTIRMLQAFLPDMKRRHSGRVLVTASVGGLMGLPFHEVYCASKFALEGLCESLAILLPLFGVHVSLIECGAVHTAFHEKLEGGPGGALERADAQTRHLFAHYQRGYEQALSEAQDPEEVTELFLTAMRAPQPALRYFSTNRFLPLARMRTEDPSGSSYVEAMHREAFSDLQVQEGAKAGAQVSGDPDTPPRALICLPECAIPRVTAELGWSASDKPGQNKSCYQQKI
As to the kind of experiment: In vitro enzymatic activity, recombinant rat 17β-HSD 1. It is filed as biochemical. To be noted: 2 µM compound, 15 nM 3H-estrone, read-out: Observed % inhibition. An excerpt:
(§1) Full length cDNAs of several 17β-HSDs type 1 originating from different species were cloned either into the pQE30 vector (human 17β-HSD 1, coding for acc. no. NP_000404) for expression as His-Tag protein or into a modified pGex-2T vector [63] (mouse 17β-HSD 1, acc. no. NP_034605; rat 17β-HSD 1, acc. no. NP_036983; marmoset 17β-HSD 1, acc. no. AAG01115; porcine 17β-HSD 1, acc. no. NP_001121944) for expression as GST-fusion proteins. The marmoset 17β-HSD 1 enzyme sequence was updated by the missing N-terminal part (AF272013) and the new porcine sequence was submitted to GenBank (NP_001121944). Human 17β-HSDs 2, 4, 5 (AKR1C3, the latter kindly provided by Dr. T. Penning) and 7 were all cloned into the modified pGEX-2T vector. For 17β-HSD 4 only the SDR-domain converting the steroids was subcloned. Plasmids were transformed into E.coli BL21 DE3 Codon Plus RP (Stratagene) and enzyme expression was induced by 0.5 mM IPTG. After 4h incubation at 37°C with continuous shaking bacteria were pelleted by centrifugation at 10.000×g. Pellets were stored until use at −20°C.
(§2) The bacteria containing recombinant enzymes were resuspended in PBS and enzymatic assays were performed in 100 mM sodium phosphate buffer at pH 6.6 for the reductive reaction and at pH 7.7 for the oxidative reaction. […] All substrates were purchased from NEN/Perkin Elmer. The cofactors NADPH (Sigma; for reductive reactions) and NAD^+ (Serva, for oxidative reactions) were used at final concentrations of 0.5 mg/ml. […] The incubation at 37°C was stopped with 0.21 M ascorbic acid in methanol∶acetic acid 99∶1 (v∶v) after the time needed to convert approximately 30% of the substrate in a control assay with 1% DMSO, without inhibitor candidates. […] The solvent used was acetonitrile∶water (43∶57, v∶v) at a flow rate of 1 ml/min. Radioactivity was detected by online-scintillation counting (Berthold LB506D) after mixing with ReadyFlowIII (Beckman). Conversion was calculated from integration of substrate and product peaks. […] All assays were run in duplicates of two independent experiments and mean values are reported. The IC50 values were determined by the One Ligand Binding model of SigmaPlot kinetics module.

Assay [1] has as its system 17β-HSD 1 orthologs of five species. The assay can be described thus: In vitro enzymatic activity, 17β-HSD 1 orthologs of five species taken together. It is filed as biochemical, human, marmoset, mouse, pig, rat. Particulars: average over the 17β-HSD 1 orthologs of the species; 2 µM compound.
The target in another assay is T2, human 17β-HSD 1 (Homo sapiens, UniProt P14061).
T2 construct: Full length cDNAs of several 17β-HSDs type 1 originating from different species were cloned; made in house; host or cells: E.coli BL21 DE3 Codon Plus RP
T2 sequence (P14061 1-328): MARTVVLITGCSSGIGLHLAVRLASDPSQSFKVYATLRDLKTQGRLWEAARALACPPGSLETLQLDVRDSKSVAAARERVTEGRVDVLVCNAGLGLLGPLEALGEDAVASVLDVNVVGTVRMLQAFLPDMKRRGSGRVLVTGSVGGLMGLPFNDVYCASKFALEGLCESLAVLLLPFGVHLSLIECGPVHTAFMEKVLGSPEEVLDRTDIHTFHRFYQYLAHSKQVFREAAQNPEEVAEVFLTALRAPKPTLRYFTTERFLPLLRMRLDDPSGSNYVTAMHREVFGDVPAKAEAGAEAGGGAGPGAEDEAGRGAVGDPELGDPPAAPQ
The assay can be described thus: In vitro enzymatic activity, recombinant human 17β-HSD 1 (estrone reduction). It is filed as biochemical. To be noted: for specificity for human 17β-HSD 1 over human 17β-HSD 2, 4, 5 and 7 (in words) / inhibition of the human 17β-HSD 1 reductive activity (in words): 2 µM; for specificity for human 17β-HSD 1 over human 17β-HSD 2, 4, 5 and 7 (in words): Figure 2, Table 3; for inhibition at 2 µM: human 17β-HSD 1, 2 µM compound, 15 nM 3H-estrone, NADPH, pH 6.6, read-out: Observed % inhibition; for inhibition of the human 17β-HSD 1 reductive activity (in words): Figure 2; for IC50: Human 17β-HSD 1, 0.005 µM to 5 µM inhibitor.
Excerpt: as §1, §2

The next assay deals with T3, mouse 17β-HSD 1 (Mus musculus, UniProt P51656).
T3 construct: Full length cDNAs of several 17β-HSDs type 1 originating from different species were cloned; made in house; host or cells: E.coli BL21 DE3 Codon Plus RP
T3 sequence (P51656 1-344): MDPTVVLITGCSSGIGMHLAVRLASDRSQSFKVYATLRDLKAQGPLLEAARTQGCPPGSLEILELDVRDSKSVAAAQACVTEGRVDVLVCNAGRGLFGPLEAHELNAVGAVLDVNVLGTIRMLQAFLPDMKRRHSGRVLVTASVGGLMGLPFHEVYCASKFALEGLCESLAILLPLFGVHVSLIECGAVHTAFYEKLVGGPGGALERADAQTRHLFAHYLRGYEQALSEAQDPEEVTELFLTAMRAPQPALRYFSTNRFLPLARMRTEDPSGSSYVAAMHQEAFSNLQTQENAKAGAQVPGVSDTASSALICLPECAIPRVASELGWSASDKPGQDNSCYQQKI
As to the kind of experiment: In vitro enzymatic activity, recombinant mouse 17β-HSD 1. It is filed as biochemical. Particulars: 2 µM compound, 15 nM 3H-estrone, read-out: Observed % inhibition.
Excerpt: as §1, §2

The next assay concerns the target T4, human 17β-HSD 7 (Homo sapiens, UniProt P56937).
T4 construct: made in house; host or cells: E.coli BL21 DE3 Codon Plus RP
T4 sequence (P56937 1-341): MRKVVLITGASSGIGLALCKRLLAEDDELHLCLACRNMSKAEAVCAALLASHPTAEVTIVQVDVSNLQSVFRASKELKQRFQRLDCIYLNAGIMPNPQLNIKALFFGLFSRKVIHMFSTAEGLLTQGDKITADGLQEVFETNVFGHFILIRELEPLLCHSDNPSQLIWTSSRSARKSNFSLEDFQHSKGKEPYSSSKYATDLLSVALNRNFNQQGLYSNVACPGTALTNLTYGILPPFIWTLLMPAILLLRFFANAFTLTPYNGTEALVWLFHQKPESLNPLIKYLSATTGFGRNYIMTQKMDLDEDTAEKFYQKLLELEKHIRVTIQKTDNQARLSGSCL
As to the kind of experiment: In vitro enzymatic activity, recombinant human 17β-HSD 7 (estrone reduction). It is filed as biochemical. To be noted: 2 µM compound, 15 nM 3H-estrone, NADPH, pH 6.6, read-out: Observed % inhibition.
Excerpt: as §1, §2

Turning to `C[C@]12CC[C@@H]3c4ccc(O)cc4CC[C@H]3[C@@H]1[C@@H](CNC(=O)c1ccc(F)cc1)CC2=O` [Compound 1], the inhibition at 2 µM at rat 17β-HSD 1 was 47.1%; at human 17β-HSD 1, 63.6%; on mouse 17β-HSD 1, 27%; at human 17β-HSD 7, -3.6%. Further, the “Observed % inhibition, average” value in assay [1] turned out to be 42.1%. Moreover, the “specificity for human 17β-HSD 1 over human 17β-HSD 2, 4, 5 and 7 (in words)” value at human 17β-HSD 1 is “most specific inhibitors”.
On to `C[C@]12CC[C@@H]3c4ccc(O)cc4CC[C@H]3[C@@H]1[C@@H](CCCC(=O)N1CCOCC1)CC2=O` [Compound 2], for which the inhibition at 2 µM at rat 17β-HSD 1 is 40.3%; on human 17β-HSD 1, 94.7%; at mouse 17β-HSD 1, -1.5%; at human 17β-HSD 7 it was -7.1%. Moreover, the “Observed % inhibition, average” value in assay [1] is recorded as 52.2%. For the same molecule, the “inhibition of the human 17β-HSD 1 reductive activity (in words)” value at human 17β-HSD 1 is listed as “high inhibition”. Moreover, the “specificity for human 17β-HSD 1 over human 17β-HSD 2, 4, 5 and 7 (in words)” value at human 17β-HSD 1 was “very low inhibition of the other human 17β-HSDs; also recorded: most specific inhibitors”. Also, the IC50 on human 17β-HSD 1 was 0.0874 µM.
Regarding `Cc1cnc(NC(=O)CC[C@@H]2CC(=O)[C@@]3(C)CC[C@@H]4c5ccc(O)cc5CC[C@H]4[C@H]23)s1` [Compound 3], the inhibition at 2 µM at rat 17β-HSD 1 amounted to 5.3%. Also, in assay [1], the “Observed % inhibition, average” value came out at 66.7%. Moreover, at human 17β-HSD 1, the “inhibition of the human 17β-HSD 1 reductive activity (in words)” value is given as “high inhibition”; the “specificity for human 17β-HSD 1 over human 17β-HSD 2, 4, 5 and 7 (in words)” value was “very low inhibition of the other human 17β-HSDs; also recorded: most specific inhibitors”; the 50% inhibitory concentration (IC50) turned out to be 0.0013 µM; the inhibition at 2 µM stood at 97.9%. Further, the inhibition at 2 µM at mouse 17β-HSD 1 is 27%. Moreover, on human 17β-HSD 7, the inhibition at 2 µM was -9%.
In the case of `COc1ccc(-c2cn(CCC[C@H]3CC(=O)[C@@]4(C)CC[C@@H]5c6ccc(O)cc6CC[C@H]5[C@H]34)nn2)cc1` [Compound 4], the inhibition at 2 µM is 19.4% at rat 17β-HSD 1, 95.8% on human 17β-HSD 1, 18.5% at mouse 17β-HSD 1 and -5.8% at human 17β-HSD 7. Besides, the “Observed % inhibition, average” value in assay [1] is 57.0%.
As to `C[C@]12CC[C@@H]3c4ccc(O)cc4CC[C@H]3[C@@H]1C[C@H](CC(=O)NCc1cccnc1)C2=O` [Compound 5, reference compound], the inhibition at 2 µM on rat 17β-HSD 1 is -2.4%; at human 17β-HSD 1 it was 100%; at mouse 17β-HSD 1, 3.2%; on human 17β-HSD 7, 0%. Besides, the “Observed % inhibition, average” value in assay [1] was 48.4%.
